10 compounds from patent US12516058B2, “Small-molecule compounds for controlling endosomal toll-like receptors and therapeutic agent for autoimmune diseases using same” (priority 2020, dated 2026) can be followed below.

The structures appear in SMILES notation. Entries after “also recorded” stand apart in the source; their conditions may differ.

The target in one assay is T1, TLR7 (Mus musculus, UniProt P58681).
T1 construct: endogenous in cells; host or cells: RAW 264.7
T1 sequence (P58681 27-1050): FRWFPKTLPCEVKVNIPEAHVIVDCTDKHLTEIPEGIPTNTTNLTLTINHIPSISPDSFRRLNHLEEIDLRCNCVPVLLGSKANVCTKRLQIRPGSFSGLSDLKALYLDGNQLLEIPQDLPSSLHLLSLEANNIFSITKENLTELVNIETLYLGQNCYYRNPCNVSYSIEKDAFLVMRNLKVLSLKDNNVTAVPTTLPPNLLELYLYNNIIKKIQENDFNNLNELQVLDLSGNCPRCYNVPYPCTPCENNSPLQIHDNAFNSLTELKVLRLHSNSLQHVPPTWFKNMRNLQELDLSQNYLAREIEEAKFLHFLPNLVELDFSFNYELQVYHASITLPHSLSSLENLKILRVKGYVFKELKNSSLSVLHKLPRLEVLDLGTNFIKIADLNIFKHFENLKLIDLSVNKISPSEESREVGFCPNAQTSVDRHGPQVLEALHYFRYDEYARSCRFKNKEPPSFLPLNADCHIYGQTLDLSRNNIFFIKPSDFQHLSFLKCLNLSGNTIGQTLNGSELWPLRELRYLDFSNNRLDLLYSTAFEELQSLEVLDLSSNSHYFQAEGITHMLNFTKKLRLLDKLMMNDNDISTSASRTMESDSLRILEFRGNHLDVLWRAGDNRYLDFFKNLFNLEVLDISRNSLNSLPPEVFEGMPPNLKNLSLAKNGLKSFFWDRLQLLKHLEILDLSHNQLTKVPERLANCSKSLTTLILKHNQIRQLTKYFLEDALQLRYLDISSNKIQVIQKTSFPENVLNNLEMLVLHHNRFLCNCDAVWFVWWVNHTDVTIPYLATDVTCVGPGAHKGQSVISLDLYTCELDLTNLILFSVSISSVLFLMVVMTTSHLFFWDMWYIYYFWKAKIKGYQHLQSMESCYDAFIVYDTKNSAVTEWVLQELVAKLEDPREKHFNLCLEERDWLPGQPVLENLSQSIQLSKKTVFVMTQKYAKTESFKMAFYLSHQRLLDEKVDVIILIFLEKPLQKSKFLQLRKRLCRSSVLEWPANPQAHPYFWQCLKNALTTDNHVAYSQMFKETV
The assay is described as follows: TNF-α secretion ELISA after TLR7 agonist imiquimod (IMQ) in RAW 264.7 cells. Type of assay: cell-based. The note with it: SK21 to SK82 at 0.5 μM or 2 μM, Imiquimod 1 μg/ml. As for the experimental part: (§1) In order to determine the inhibitory activities of the test-ligand, RAW 264.7 cells were pretreated with each candidate compound for 1 hour, then treated with Pam3CSK4 (synthetic triacyl lipopeptide; TLR1/2, Invitrogen), FSL-1 (synthetic diacyl lipoprotein, TLR2/6, 100 ng/ml), lipopolysaccharide (LPS, TLR4, Sigma Aldrich), imiquimod (IMQ, TLR7, Invitrogen), and ODN2395 (type C CpG repeat motif DNA oligo(5′-[…]-3), TLR9, Bioneer) ligand for 4 hours, and treated with poly I:C (I:C repeat motif double-stranded RNA, TLR3, Invitrogen) and TL8-506 (TLR8, Invitrogen) showing delayed reactivity for 24 hours. After activation of TLR, the supernatant was diluted in an appropriate ratio so as to measure within the standard dose range, transferred to a pre-coated 96-well assay plate, and then treated with mouse TNF-alpha secretion level in accordance with the manufacturer's instructions using a mouse-TNF-alpha ELISA-kit (Invitrogen).
(§2) In order to plot the concentration-dependent LC50 curves, treatment with the SK series ligands at different concentrations up to 200 μM (the highest concentration that could be treated within the level of 0.5% DMSO) was performed. Then, cell viability and toxicity response upon treatment with ligands were analyzed by MTT as described in Examples 1-3. Cell viability in each plot was normalized from negative control (100%; no treatment) to positive control (highest concentration of test-ligand), and LC50 was determined by non-linear regression (Graph Pad Prism 7.0). In order to plot the concentration-dependent IC50 curves, pre-treatment with the SK series ligands was performed at different concentrations up to 50 μM (twice the initial concentration). Cell responses mediated by TLR7 and TLR9 (levels of TNF-α secretion) were analyzed by ELISA as described in Examples 1-4. The cytokine level in each plot was normalized from negative control (non-treated) to positive control (treatment with ligand), and IC50 was determined by non-linear regression (Graph Pad Prism 7.0).
(§3) In order to select potential inhibitory molecules against TLR3/TLR7/TLR8/TLR9 activation, first, MTT (3-(4,5-dimethylthiazol-2-yl)-2,5-diphenyltetrazolium bromide) cell viability assay (FIG. 7) was performed upon treatment with a set of ligands from SK21 to SK82 at a concentration of 20 μM and the inhibitory activity thereof was evaluated by an ELISA assay to monitor the level of TNF-α secretion in RAW 264.7 cells. The experimental ligands from SK21 to SK82 were administered at 0.5 μM or 2 μM to the RAW 264.7 cells and stimulated with Imiquimod (TLR7, 1 μg/ml) and OND2395 (TLR9, 0.5 μM).
A general note: ELISA stands for enzyme-linked immunosorbent assay.

A further assay deals with T2, TLR9 (Mus musculus, UniProt Q9EQU3).
T2 construct: endogenous in cells; host or cells: RAW 264.7
T2 sequence (Q9EQU3 26-1032): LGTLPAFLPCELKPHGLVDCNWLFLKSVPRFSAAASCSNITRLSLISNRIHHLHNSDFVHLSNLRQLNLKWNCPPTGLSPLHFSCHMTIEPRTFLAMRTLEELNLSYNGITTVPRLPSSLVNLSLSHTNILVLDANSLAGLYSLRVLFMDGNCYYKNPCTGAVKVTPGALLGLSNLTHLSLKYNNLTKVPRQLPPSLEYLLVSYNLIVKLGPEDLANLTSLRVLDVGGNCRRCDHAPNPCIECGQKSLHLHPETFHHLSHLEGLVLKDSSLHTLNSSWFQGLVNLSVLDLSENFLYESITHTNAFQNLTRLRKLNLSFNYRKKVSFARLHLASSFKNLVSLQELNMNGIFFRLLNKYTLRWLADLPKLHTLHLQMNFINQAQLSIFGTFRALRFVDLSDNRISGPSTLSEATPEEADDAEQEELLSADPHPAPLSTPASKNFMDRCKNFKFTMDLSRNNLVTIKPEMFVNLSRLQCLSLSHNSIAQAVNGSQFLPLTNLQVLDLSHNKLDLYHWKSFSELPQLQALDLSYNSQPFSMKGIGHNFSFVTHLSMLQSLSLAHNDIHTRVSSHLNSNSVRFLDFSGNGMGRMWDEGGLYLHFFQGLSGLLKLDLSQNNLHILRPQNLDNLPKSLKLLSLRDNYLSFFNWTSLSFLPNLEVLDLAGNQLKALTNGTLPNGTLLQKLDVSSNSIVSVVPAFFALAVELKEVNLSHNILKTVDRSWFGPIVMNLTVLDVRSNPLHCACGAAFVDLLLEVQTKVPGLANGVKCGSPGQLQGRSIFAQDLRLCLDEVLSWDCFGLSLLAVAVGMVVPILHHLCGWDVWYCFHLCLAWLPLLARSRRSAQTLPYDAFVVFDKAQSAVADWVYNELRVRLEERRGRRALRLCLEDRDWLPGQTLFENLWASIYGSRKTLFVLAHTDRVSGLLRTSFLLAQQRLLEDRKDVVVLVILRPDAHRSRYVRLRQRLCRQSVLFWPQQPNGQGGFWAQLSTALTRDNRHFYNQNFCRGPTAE
As to the kind of experiment: TNF-α secretion ELISA after TLR9 agonist ODN2395 in RAW 264.7 cells. The note with it: SK21 to SK82 at 0.5 μM or 2 μM, ODN2395 0.5 μM. The class given is cell-based. As for the experimental part: as §1, §2, §3

As to `COc1ccc2c3c(N)c4c(nc3n(CCCN(C)C)c2c1)CCCC4` [SK65, 6-(3-(dimethylamino)propyl)-8-methoxy-2,3,4,6-tetrahydro-1H-indolo[2,3-b]quinolin-11-amine], the “inhibitory activity against TLR7 (level of TNF-α secretion)” value (shortened to “inhibitory activity against TLR7”) at TLR7 was “significant inhibitory activity; also recorded: significantly reduced”. The “inhibitory activity against TLR9 (level of TNF-α secretion)” value (“inhibitory activity against TLR9” below) on TLR9 is on record as “significant inhibitory activity; also recorded: significantly reduced”.
For the compound `CN(C)CCCn1c2ccc(Cl)cc2c2c(N)c3c(nc21)CCCC3` [SK60, 9-chloro-6-(3-(dimethylamino)propyl)-2,3,4,6-tetrahydro-1H-indolo[2,3-b]quinolin-11-amine], at TLR7, the “inhibitory activity against TLR7” value is reported as “significant inhibitory activity; also recorded: significantly reduced”. For the same compound, on TLR9, the “inhibitory activity against TLR9” value is listed as “significant inhibitory activity; also recorded: significantly reduced”.
Regarding `CN(C)CCCn1c2ccc(F)cc2c2c(N)c3c(nc21)CCCC3` [SK59, 6-(3-(dimethylamino)propyl)-9-fluoro-2,3,4,6-tetrahydro-1H-indolo[2,3-b]quinolin-11-amine], the “inhibitory activity against TLR7” value at TLR7 is reported as “significant inhibitory activity; also recorded: significantly reduced”. The “inhibitory activity against TLR9” value at TLR9 was “significant inhibitory activity; also recorded: significantly reduced”.
As for `CNCCCn1c(C)c(C)c2c(N)c3c(nc21)CCCCC3` [SK24, 2,3-dimethyl-1-(3-(methylamino)propyl)-1,5,6,7,8,9-hexahydrocyclohepta[b]pyrrolo[3,2-e]pyridin-4-amine], the “inhibitory activity against TLR7” value at TLR7 is listed as “significant inhibitory activity; also recorded: significantly reduced”. The “inhibitory activity against TLR9” value on TLR9 was “significant inhibitory activity; also recorded: significantly reduced”.
Consider `CN(C)CCCn1c2ccc(C(F)(F)F)cc2c2c(N)c3c(nc21)CCCC3` [SK63, 6-(3-(dimethylamino)propyl)-9-(trifluoromethyl)-2,3,4,6-tetrahydro-1H-indolo[2,3-b]quinolin-11-amine], for which, at TLR7, the “inhibitory activity against TLR7” value was “significant inhibitory activity; also recorded: significantly reduced”. At TLR9, the “inhibitory activity against TLR9” value is listed as “significant inhibitory activity; also recorded: significantly reduced”.
As for `CC(C)Oc1ccc2c(c1)c1c(N)c3c(nc1n2CCCN(C)C)CCCC3` [SK70, 6-(3-(dimethylamino)propyl)-9-isopropoxy-2,3,4,6-tetrahydro-1H-indolo[2,3-b]quinolin-11-amine], the “inhibitory activity against TLR7” value at TLR7 is reported as “significant inhibitory activity; also recorded: significantly reduced”. On TLR9, the “inhibitory activity against TLR9” value is on record as “significant inhibitory activity; also recorded: significantly reduced”.
As to `Cc1c(C)n(CCCN(C)C)c2nc3c(c(N)c12)CCCC3` [SK36, 1-(3-(dimethylamino)propyl)-2,3-dimethyl-5,6,7,8-tetrahydro-1H-pyrrolo[2,3-b]quinolin-4-amine], at TLR7, the “inhibitory activity against TLR7” value is on record as “significant inhibitory activity; also recorded: significantly reduced”. Further, the “inhibitory activity against TLR9” value on TLR9 was “significant inhibitory activity; also recorded: significantly reduced”.
For `CN(C)CCCn1c2ccc3ccccc3c2c2c(N)c3c(nc21)CCCC3` [SK74, 7-(3-(dimethylamino)propyl)-9,10,11,12-tetrahydro-7H-benzo[4,5]indolo[2,3-b]quinolin-13-amine], the “inhibitory activity against TLR7” value is listed as “significantly reduced” on TLR7 and “significant inhibitory activity” at TLR7 (listed as SK 74). Besides, the “inhibitory activity against TLR9” value at TLR9 is “significantly reduced”; at TLR9 (listed as SK 74), “significant inhibitory activity”.
For the compound `CNCCCn1c2ccccc2c2c(N)c3c(nc21)CCCC3` [SK55, 6-(3-(methylamino)propyl)-2,3,4,6-tetrahydro-1H-indolo[2,3-b]quinolin-11-amine], the “inhibitory activity against TLR7” value at TLR7 was “significant inhibitory activity; also recorded: significantly reduced”. On TLR9, the “inhibitory activity against TLR9” value is given as “significant inhibitory activity; also recorded: significantly reduced”.
As to `CN(C)CCCn1c2ccc(OC(F)(F)F)cc2c2c(N)c3c(nc21)CCCC3` [SK61, 6-(3-(dimethylamino)propyl)-9-(trifluoromethoxy)-2,3,4,6-tetrahydro-1H-indolo[2,3-b]quinolin-11-amine], at TLR7, the “inhibitory activity against TLR7” value is listed as “significant inhibitory activity; also recorded: significantly reduced”. For the same compound, on TLR9, the “inhibitory activity against TLR9” value is recorded as “significant inhibitory activity; also recorded: significantly reduced”.
